Experimental data reported in patent US6872745B2, “Antipicornaviral compounds and compositions, their pharmaceutical uses, and materials for their synthesis” (Agouron Pharmaceuticals, Inc., priority 2000, dated 2005).

Key:
[1] = target: T1, rhinovirus 3C protease, serotype 14 (Human rhinovirus 14, UniProt P03303); assay: Inhibition of rhinovirus 3C protease (FRET assay, enzyme start); format: biochemical; settings: HRV-14 3C protease, progress curves, read-out: Kobs/I
T1 construct: Recombinant rhinovirus 3C proteases; made in house
T1 sequence (P03303 1538-1719): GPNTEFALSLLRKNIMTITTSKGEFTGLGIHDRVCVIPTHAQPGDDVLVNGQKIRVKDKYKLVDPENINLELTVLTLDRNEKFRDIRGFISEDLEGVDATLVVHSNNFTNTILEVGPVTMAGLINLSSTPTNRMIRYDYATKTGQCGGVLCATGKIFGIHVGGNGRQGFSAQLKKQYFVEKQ
Method: Stock solutions (50 mM, in DMSO) of various compounds were prepared; dilutions were in the same solvent. Recombinant rhinovirus 3C proteases (see Birch et al., “Purification of recombinant human rhinovirus 14 3C protease expressed in Escherichia coli,” Protein Expr. Pur. (1995), vol. 6(5), 609-618) from serotypes 14, 16, and 2 were prepared by the following standard chromatographic procedures: (1) ion exchange using Q Sepharose Fast Flow from Pharmacia; (2) affinity chromatography using Affi-Gel Blue from Biorad; and (3) sizing using Sephadex G-100 from Pharmacia. Each assay sample contained 2% DMSO, 50 mM tris pH 7.6, 1 mM EDTA, a test compound at the indicated concentration, approximately 1 μM substrate, and 50-100 nM protease. The kobs/I values were obtained from reactions initiated by addition of enzyme rather than substrate. RVP activity was measured in the fluorescence resonance energy transfer assay. The substrate was (N-terminal) DABCYL-(Gly-Arg-Ala-Val-Phe-Gln-Gly-Pro-Val-Gly)-EDANS. In the uncleaved peptide, the EDANS fluorescence was quenched by the proximal DABCYL moiety. When the peptide was cleaved, the quenching was relieved, and activity was measured as an increase in fluorescence signal. The tabulated data in the column designated kobs/[I] were measured from progress curves in enzyme start experiments.

HRV-14 = assay: Antirhinoviral H1-HeLa cell culture assay (XTT cell protection); format: cell-based, human rhinovirus; settings: Rhinovirus B, HRV14, H1-HeLa, HRV-14, H1-HeLa cells
Method: (§1) In this cell protection assay, the ability of compounds to protect cells against HRV infection was measured by the XTT dye reduction method, which is described in Weislow et al., J. Natl. Cancer Inst. (1989), vol. 81, 577-586. H1-HeLa cells were infected with HRV-14 at a multiplicity of infection (m.o.i.) of 0.13 (virus particles/cell) or mock-infected with medium only. Infected or mock-infected cells were resuspended at 8×10^5 cells per ml, and incubated with appropriate concentrations of the compounds to be tested. Two days later, XTT/PMS was added to test plates and the amount of formazan produced was quantified spectrophotometrically at 450/650 nm. The EC50 value was calculated as the concentration of compound that increased the percentage of formazan production in compound-treated, virus-infected cells to 50% of that produced by compound-free, mock-infected cells. The 50% cytotoxic dose (CC50) was calculated as the concentration of compound that decreased the percentage of formazan produced in compound-treated, mock-infected cells to 50% of that produced by compound-free, mock-infected cells. The therapeutic index (TI) was calculated by dividing the CC50 value by the EC50 value.
(§2) All strains of human rhinovirus (HRV) for use in this assay were purchased from American Type Culture Collection (ATCC), except for HRV serotype-14 (produced from the infectious cDNA clone constructed by Dr. Robert Rueckert, Institute for Molecular Virology, University of Wisconsin, Madison, Wis.). HRV stocks were propagated and viral assays were performed in H1-HeLa cells (ATCC). Cells were grown in minimal essential medium with 10% fetal bovine serum, available from Life Technologies (Gaithersburg, Md.).

HRV-1A = assay: as above; format: cell-based, human rhinovirus; settings: Rhinovirus A, HRV1A, H1-HeLa cells
Method: as §1, §2

HRV-10 = assay: as above; format: cell-based; settings: Human rhinovirus sp., HRV10; HRV-10, H1-HeLa cells
Method: as §1, §2

HRV-25 = assay: as above; format: cell-based; settings: Human rhinovirus sp., HRV25; HRV-25, H1-HeLa cells
Method: as §1, §2

HRV-39 = assay: as above; format: cell-based; settings: Human rhinovirus sp., HRV39; HRV-39, H1-HeLa cells
Method: as §1, §2

HRV-3 = assay: as above; format: cell-based; settings: Human rhinovirus sp., HRV3; HRV-3, H1-HeLa cells
Method: as §1, §2

HRV-9 = assay: as above; format: cell-based; settings: Human rhinovirus sp., HRV9; HRV-9, H1-HeLa cells
Method: as §1, §2

[2] = Cytotoxicity in mock-infected cells of the antirhinoviral assay (XTT); format: cell-based; settings: human, H1-HeLa cells
Method: as §1, §2

H1-HeLa cells = assay: as above; format: cell-based
Method: as §1, §2

HRV-2 = assay: Antirhinoviral H1-HeLa cell culture assay (XTT cell protection); format: cell-based, human rhinovirus; settings: Rhinovirus A, HRV2; HRV-2, H1-HeLa cells
Method: as §1, §2

HRV-16 = assay: as above; format: cell-based; settings: Human rhinovirus sp., HRV16; HRV-16, H1-HeLa cells
Method: as §1, §2

HRV-87 = assay: as above; format: cell-based; settings: Human rhinovirus sp., HRV87; HRV-87, H1-HeLa cells
Method: as §1, §2

Compound | kinact/KI [1] [M⁻¹ s⁻¹] | EC50 (HRV-14) [nM] | EC50 (HRV-1A) [nM] | EC50 (HRV-10) [nM] | EC50 (HRV-25) [nM] | EC50 (HRV-39) [nM] | EC50 (HRV-3) [nM] | EC50 (HRV-9) [nM] | EC50 (HRV-2) [nM] | EC50 (HRV-16) [nM] | EC50 (HRV-87) [nM] | CC50 at 2 days ([2]; table line HRV-14) [nM] | CC50 (H1-HeLa cells; table line HRV-1A) [nM] | CC50 (H1-HeLa cells; table line HRV-3) [nM] | CC50 (H1-HeLa cells; table line HRV-9) [nM] | CC50 (H1-HeLa cells; table line HRV-10) [nM] | CC50 (H1-HeLa cells; table line HRV-25) [nM] | CC50 (H1-HeLa cells; table line HRV-39) [nM] | CC50 at 2 days ([2]; table line HRV-1A) [nM] | CC50 (H1-HeLa cells; table line HRV-2) [nM] | also measured
C#CC[C@H](NC(=O)c1ccc(-c2ccccc2C(F)(F)F)[nH]1)C(=O)N[C@H](/C=C/C(=O)OCC)C[C@@H]1CCNC1=O [Compound 29, 5-(2-Oxo-pyrrolidin-3S-yl)-4S-(2S-{[5-(2-trifluoromethyl-phenyl)-1H-pyrrole-2-carbonyl]-amino}-pent-4-ynoylamino)-pent-2(trans)-enoic acid ethyl ester] | 103000 | 150 | 54 | 27 | 316 | 180 | 65 | 119 |  |  |  | > 10000 | > 10000 | > 10000 | > 10000 | > 10000 | > 10000 | > 10000 |  |  | 
CCOC(=O)/C=C/[C@H](C[C@@H]1CCNC1=O)NC(=O)[C@H](Cc1ccccc1)NC(=O)c1ccc(-c2ccccc2C(F)(F)F)[nH]1 [Compound 28, 5-(2-Oxo-pyrrolidin-3S-yl)-4S-(3-phenyl-2S-{[5-(2-trifluoromethyl-phenyl)-1H-pyrrole-2-carbonyl]-amino}-propionylamino)-pent-2(trans)-enoic acid ethyl ester] | 340000 | 59 | 213 | 66 |  |  |  |  |  |  |  | > 1000 | > 1000 |  |  | > 1000 |  |  |  |  | 
C#CC[C@H](CC(=O)c1ccc(-c2ccccc2C(F)(F)F)[nH]1)C(=O)N[C@H](/C=C/C(=O)OCC)C[C@@H]1CCNC1=O [Compound 36] |  |  | 145 | 330 | 329 | 235 | 145 | 144 |  |  |  | > 10000 | > 10000 | > 10000 | > 10000 | > 10000 | > 10000 | > 10000 |  |  | 

Now from value to compound, other results behind:

kinact/KI [1] [M⁻¹ s⁻¹] | EC50 (HRV-14) [nM] | EC50 (HRV-1A) [nM] | EC50 (HRV-10) [nM] | EC50 (HRV-25) [nM] | EC50 (HRV-39) [nM] | EC50 (HRV-3) [nM] | EC50 (HRV-9) [nM] | EC50 (HRV-2) [nM] | EC50 (HRV-16) [nM] | EC50 (HRV-87) [nM] | Compound | CC50 at 2 days ([2]; table line HRV-14) [nM] | CC50 (H1-HeLa cells; table line HRV-1A) [nM] | CC50 (H1-HeLa cells; table line HRV-3) [nM] | CC50 (H1-HeLa cells; table line HRV-9) [nM] | CC50 (H1-HeLa cells; table line HRV-10) [nM] | CC50 (H1-HeLa cells; table line HRV-25) [nM] | CC50 (H1-HeLa cells; table line HRV-39) [nM] | CC50 at 2 days ([2]; table line HRV-1A) [nM] | CC50 (H1-HeLa cells; table line HRV-2) [nM] | also measured
20100 | 214 | 338 | 428 | 1320 | 518 | 595 | 665 | 214 | 952 | 83 | C#CC[C@H](CC(=O)c1ccc(-c2ccccc2C)[nH]1)C(=O)N[C@H](/C=C/C(=O)OCC)C[C@@H]1CCNC1=O [Compound 39, 5-(2-Oxo-pyrrolidin-3S-yl)-4S-{2R-[2-oxo-2-(5-o-tolyl-1H-pyrrol-2-yl)-ethyl]-pent-4-ynoylamino}-pent-2(trans)-enoic acid ethyl ester] |  |  | > 10000 | > 10000 | > 10000 | > 10000 | > 10000 | > 10000 | > 10000 | CC50 (H1-HeLa cells; table line HRV-14): > 10000 nM; CC50 (H1-HeLa cells; table line HRV-16): > 10000 nM; CC50 (H1-HeLa cells; table line HRV-87): > 10000 nM
33000 | 136 | 537 | 446 | 1510 | 593 | 605 | 885 | 353 | 1490 | 97 | C#CC[C@H](CC(=O)c1ccc(-c2ccccc2Cl)[nH]1)C(=O)N[C@H](/C=C/C(=O)OCC)C[C@@H]1CCNC1=O [Compound 38, 4S-(2R-{2-[5-(2-Chloro-phenyl)-1H-pyrrol-2-yl]-2-oxo-ethyl}-pent-4-ynoylamino)-5-(2-oxo-pyrrolidin-3S-yl)-pent-2(trans)-enoic acid ethyl ester] |  |  | > 10000 | > 10000 | > 10000 | > 10000 | > 10000 | > 10000 | > 10000 | CC50 (H1-HeLa cells; table line HRV-14): > 10000 nM; CC50 (H1-HeLa cells; table line HRV-16): > 10000 nM; CC50 (H1-HeLa cells; table line HRV-87): > 10000 nM
